Experimental data published in ChEMBL document CHEMBL3244025, “Carbocyclic arabinosyladenine, an adenosine deaminase resistant antiviral agent” (J Med Chem, 1977).

Tested on: Vaccinia virus
Assay: Antiviral activity against Vaccinia virus Lederle Chorioallantoic infected in human Hep2 cells assessed as inhibition of virus-induced cytopathogenic effect
Type: functional, Orthopoxvirus vaccinia, HEp-2

SMILES: Nc1ncnc2c1ncn2[C@@H]1C[C@H](CO)[C@@H](O)[C@@H]1O (racemic)
- MED50: 9 µg/mL
